Reference: the supplement of paper PMC11451515

Test system: SEM cells
Assay: cell viability relative to DMSO control; higher = less cytotoxic
Conditions: 48 h
Procedure, shortened: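 Viability is expressed as a percentage of DMSO wells within each plate, and cell-free wells serve as background. Seeding densities in the 1536-well plates (5 μl) were 500 cells/well for NOMO1 or SEM leukemia cells and 1000 cells/well for P12-Ichikawa. Each line was adapted for at least four passages in each medium. Library compounds in DMSO were pin-dosed at 47 μM to 0.79 nM (11 points, threefold), and CellTiter-Glo One luminescence was read after 48 h at 37°C.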

[1] = HPLM + 10% dialyzed FBS, 0.000781 µM
[2] = HPLM + 10% dialyzed FBS, 0.00234 µM
[3] = HPLM + 10% dialyzed FBS, 0.00702 µM
[4] = HPLM + 10% dialyzed FBS, 0.0211 µM
[5] = HPLM + 10% dialyzed FBS, 0.0632 µM
[6] = HPLM + 10% dialyzed FBS, 0.19 µM
[7] = HPLM + 10% dialyzed FBS, 0.569 µM
[8] = HPLM + 10% dialyzed FBS, 1.71 µM
[9] = HPLM + 10% dialyzed FBS, 5.12 µM
[10] = HPLM + 10% dialyzed FBS, 15.4 µM
[11] = HPLM + 10% dialyzed FBS, 46.1 µM
[12] = RPMI 5 mM glucose + 10% FBS, 0.000781 µM
[13] = RPMI 5 mM glucose + 10% FBS, 0.00234 µM
[14] = RPMI 5 mM glucose + 10% FBS, 0.00702 µM
[15] = RPMI 5 mM glucose + 10% FBS, 0.0211 µM
[16] = RPMI 5 mM glucose + 10% FBS, 0.0632 µM
[17] = RPMI 5 mM glucose + 10% FBS, 0.19 µM
[18] = RPMI 5 mM glucose + 10% FBS, 0.569 µM
[19] = RPMI 5 mM glucose + 10% FBS, 1.71 µM
[20] = RPMI 5 mM glucose + 10% FBS, 5.12 µM
[21] = RPMI 5 mM glucose + 10% FBS, 15.4 µM
[22] = RPMI 5 mM glucose + 10% FBS, 46.1 µM
[23] = RPMI 5 mM glucose + 10% dialyzed FBS, 0.000781 µM
[24] = RPMI 5 mM glucose + 10% dialyzed FBS, 0.00234 µM
[25] = RPMI 5 mM glucose + 10% dialyzed FBS, 0.00702 µM
[26] = RPMI 5 mM glucose + 10% dialyzed FBS, 0.0211 µM
[27] = RPMI 5 mM glucose + 10% dialyzed FBS, 0.0632 µM
[28] = RPMI 5 mM glucose + 10% dialyzed FBS, 0.19 µM
[29] = RPMI 5 mM glucose + 10% dialyzed FBS, 0.569 µM
[30] = RPMI 5 mM glucose + 10% dialyzed FBS, 1.71 µM
[31] = RPMI 5 mM glucose + 10% dialyzed FBS, 5.12 µM
[32] = RPMI 5 mM glucose + 10% dialyzed FBS, 15.4 µM
[33] = RPMI 5 mM glucose + 10% dialyzed FBS, 46.1 µM

Row | SMILES | cell viability [1] [%] | cell viability [2] [%] | cell viability [3] [%] | cell viability [4] [%] | cell viability [5] [%] | cell viability [6] [%] | cell viability [7] [%] | cell viability [8] [%] | cell viability [9] [%] | cell viability [10] [%] | cell viability [11] [%] | cell viability [12] [%] | cell viability [13] [%] | cell viability [14] [%] | cell viability [15] [%] | cell viability [16] [%] | cell viability [17] [%] | cell viability [18] [%] | cell viability [19] [%] | cell viability [20] [%] | cell viability [21] [%] | cell viability [22] [%] | cell viability [23] [%] | cell viability [24] [%] | cell viability [25] [%] | cell viability [26] [%] | cell viability [27] [%] | cell viability [28] [%] | cell viability [29] [%] | cell viability [30] [%] | cell viability [31] [%] | cell viability [32] [%] | cell viability [33] [%]
1 | NC/1=N/C(=O)N(C[C@@H](CO)OC[P](O)(O)=O)/C=C1 | 115 | 130 | 120 | 126 | 139 | 126 | 120 | 125 | 106 | 105 | 94.6 | 106 | 103 | 117 | 99.2 | 111 | 113 | 98.2 | 95.2 | 100 | 97.7 | 69.7 | 136 | 111 | 115 | 122 | 131 | 106 | 128 | 123 | 101 | 111 | 100
2 | COC1=CC(=CC=C1)C2=CC=C(NC(=O)/C3=C(/CCC3)C(O)=O)C(=C2)F | 103 | 109 | 116 | 108 | 122 | 108 | 119 | 107 | 104 | 104 | 76.6 | 92.5 | 108 | 112 | 116 | 127 | 120 | 121 | 118 | 107 | 111 | 42.8 | 95.6 | 115 | 109 | 113 | 103 | 109 | 105 | 111 | 111 | 78.2 | 30.9
3 | CCc1ccc(C(=O)Nc2cc(CN3CCN(C)CC3)cc(C(F)(F)F)c2)cc1C#Cc1cnc2ccnn2c1 | 121 | 113 | 122 | 126 | 116 | 128 | 77.4 | 122 | 109 | 73.7 | 74.4 | 110 | 118 | 114 | 109 | 111 | 106 | 98.3 | 116 | 95.9 | 94.1 | 71.9 |  |  |  |  |  |  |  |  |  |  | 
4 | O=C([O-])[C@H](CC(=O)N1C[C@H]2CCCC[C@H]2C1)Cc1ccccc1 | 79.8 | 91.7 | 88.2 | 72.7 | 107 | 109 | 103 | 106 | 119 | 125 | 121 | 93.8 | 110 | 105 | 87.7 | 102 | 108 | 106 | 112 | 117 | 128 | 119 | 85.1 | 103 | 107 | 65.5 | 95.7 | 117 | 115 | 105 | 129 | 137 | 140
